From patent US9040563B2, “Dual inhibitors of farnesyltransferase and geranylgeranyltransferase I” (H. Lee Moffitt Cancer Center and Research Institute, Inc., priority 2010, dated 2015)
Like-named read-outs stand apart in the source and are kept apart here.

Assays:
[1] = system: K-Ras prenylation; assay: Western blot of oncogenic K-Ras processing/prenylation; type: cell-based; settings: NIH-3T3 overexpressing oncogenic mutant K-Ras (FIG. 14) and MDA-MB-231 (FIG. 15)
Description: (§1) Testing has shown that the dual farnesyltransferase and geranygeranyltransferase-I inhibitors are effective on pancreatic tumors (90% of all cases), colonic tumors (30% of all cases), lung tumors (30% of all cases), and breast tumors (10% of all cases). NIH-3T3 cells that overexpress oncogenic mutant K-Ras, seen in FIG. 14, and MDA-MB-231 breast cancer cells with a naturally occurring K-Ras mutation, seen in FIG. 15, were treated with indicated concentrations of FGTI-2734, GGTI-2417 or FTI-2153. FGTI-2734 but not FTI-2153 or GGTI-2417 inhibited K-Ras prenylation. As expected, GGTI-2417 inhibited the processing of Rap1 but not HDJ-2 whereas FTI-2153 inhibited the processing of HDJ-2 but not Rap1.
(§2) Mammalian target of rapamycin (mTOR) is a serine/threonine phosphatidylinositol 3-kinase-related kinase responsible for cell growth, proliferation, cell survival, protein synthesis, and transcription. Alteration of the mTOR pathway, either through activation of oncogenes or inactivation of tumor suppressors, disrupts a signaling equilibrium and causes malignant transformation. Studies have shown that phosphorylated S6 (pS6) is related to mTOR pathway alterations, and is useful in determining PI3K-based cancer therapies (Aziz, et al. Phosphatidylinositol-3-Kinase as a Therapeutic Target in Melanoma. Clin Cancer Res. 2009, 15; 3029-3036). […]

[2] = system: geranylgeranylation of Rap1A; assay: Whole cell inhibition of Rap1A processing (geranylgeranylation), immunoblot, oncogenic H-Ras-transformed NIH3T3 cells; type: cell-based, mouse; settings: Mus musculus; whole cells, oncogenic H-Ras-transformed NIH3T3; n = 3 unless stated; read-out: Rap1A processing IC50
Description: (§3) In vitro inhibition assays for FTase and GGTase-I were conducted by measuring the incorporation of [^3H]FPP and [^3H]GGPP into recombinant H-Ras-CVLS and H-Ras-CVLL, respectively, as previously described (Vogt, et al., Protein geranylgeranylation, not farnesylation, is required for the G1 to S phase transition in mouse fibroblasts. Oncogene, 1996, 13, 1991-1999). The in vivo inhibition of farnesylation and geranylgeranylation was determined based on the level of inhibition by synthetic compounds of H-Ras and Rap1A processing, respectively (Sun, et al., Both farnesyltransferase and geranylgeranyltransferase I inhibitors are required for inhibition of oncogenic K-Ras prenylation but each alone is sufficient to suppress human tumor growth in nude mouse xenografts. Oncogene, 1998, 16, 1467-1473). […] The separated proteins were transferred to nitrocellulose and immunoblotted using an anti-Ras antibody (Y13-258) or an anti-Rap1A antibody (SantaCruz Biotechnology, Santa Cruz, Calif.), respectively. Antibody reactions were visualized using either peroxidase-conjugated goat anti-rat IgG or goat anti-rabbit IgG (Jackson ImmunoResearch, West Grove, Pa.) and an enhanced chemiluminescence detection system.
(§4) Briefly, in vitro inhibition assays for hFTase and GGTase-I were carried out by measuring the incorporation of [^3H]FPP and [^3H]GGPP into recombinant H-Ras-CVLS and H-Ras-CVLL, respectively, as described previously (Vogt et al., Protein geranylgeranylation, not farnesylation, is required for G1 to S phase transition in mouse fibroblasts. Oncogene. 1996; 13:1991-1999). Whole cell inhibition of farnesylation and geranylgeranylation were determined based on the level of inhibition by synthetic compounds of H-Ras and Rap1A processing, respectively (Sun, et al., Both farnesyltransferase and geranylgeranyltransferase I inhibitors are required for inhibition of oncogenic K-Ras prenylation but each alone is sufficient to suppress human tumor growth in nude mouse xenografts. Oncogene. 1998; 16:1467-1473).

[3] = system: farnesylation of H-Ras; assay: Whole cell inhibition of H-Ras processing (farnesylation), immunoblot, oncogenic H-Ras-transformed NIH3T3 cells; type: cell-based, mouse
Description: as §3, §4

[4] = system: Rap-1A geranylgeranylation; assay: Western blot of Rap-1A geranylgeranylation/processing (antibody to un-geranylgeranylated Rap-1A) in treated cells; type: cell-based; settings: MiaPaca, MDA-MB-468 and MDA-MB-231 human cancer cells; FIG. 13
Description: The ability of FGTI-2734 to inhibit HDJ-2 farnesylation and Rap-1A geranylgeranylation in human cancer cells was determined next. To this end, the MiaPaca pancreatic cancer cell line and 2 breast cancer cell lines (MDA-MB-468 and MDA-MB-231) were treated with various concentration of the dual inhibitor FGTI-2734, the GGT-1 inhibitor GGTI-2418 or the FT inhibitor FTI-2153 and processed for Western blotting.
as §1
as §2, with “3029-3036). Two breast adenocarcinoma and a pancreatic carcinoma cell line were treated with indicated concentrations of FGTI-2734, GGTI-2417 or FTI-2153. Protein extracts were run on a Western Blot using antibody against pS6 (ser240/244) (Cell Signaling Technology, Inc., Danvers, Mass.).” for “3029-3036).”

[5] = system: survivin; assay: Western blot of survivin and PARP (apoptosis); type: cell-based; settings: human cancer cells
Excerpt: (§5) Mammalian target of rapamycin (mTOR) is a serine/threonine phosphatidylinositol 3-kinase-related kinase responsible for cell growth, proliferation, cell survival, protein synthesis, and transcription. Alteration of the mTOR pathway, either through activation of oncogenes or inactivation of tumor suppressors, disrupts a signaling equilibrium and causes malignant transformation. Studies have shown that phosphorylated S6 (pS6) is related to mTOR pathway alterations, and is useful in determining PI3K-based cancer therapies (Aziz, et al. Phosphatidylinositol-3-Kinase as a Therapeutic Target in Melanoma. Clin Cancer Res. 2009, 15; 3029-3036). Two breast adenocarcinoma and a pancreatic carcinoma cell line were treated with indicated concentrations of FGTI-2734, GGTI-2417 or FTI-2153. Protein extracts were run on a Western Blot using antibody against pS6 (ser240/244) (Cell Signaling Technology, Inc., Danvers, Mass.). […] Antibodies used were HDJ-2 (Lab Vision Corporation, Fremont, Calif.), Rapt (Santa Cruz Biotechnology, Santa Cruz, Calif.), K-Ras (EMD4 Biosciences (Calbiochem), Gibbstown, N.J.), P27 (BD Biosciences, San Jose, Calif.), Actin (Sigma-Aldrich, St. Louis, Mo.), Survivin (Santa Cruz Biotechnology, Santa Cruz, Calif.), and PARP (Roche, Indianapolis, Ind.).

[6] = system: NCI-H460; assay: MTT proliferation/viability assay; type: cell-based; settings: Homo sapiens, NCI-H460, lung
Description: (§6) To determine if FGTI-2734 is more efficacious than FT or GGT-1 inhibitors, 10 human cancer pancreatic cell lines, 2 human breast cancer cell lines, 2 human lung cancer cell lines and one human prostate cancer cell line were treated with these inhibitors and determined their effects on the proliferation of these cells by MTT assay.

[7] = system: MDA-MB-231; assay: MTT proliferation/viability assay; type: cell-based; settings: Homo sapiens, MDA-MB-231, MDA-MB-231, breast
Description: as §6

[8] = system: HPNE-K-ras; assay: MTT proliferation/viability assay; type: cell-based, human; settings: Homo sapiens, pancreas
Description: as §6

[9] = system: Panc-1; assay: MTT proliferation/viability assay; type: cell-based, human; settings: Homo sapiens, Panc-1, pancreas
Description: as §6

[10] = system: BxPC3; assay: MTT proliferation/viability assay; type: cell-based, human
Description: as §6

[11] = system: MCF-7; assay: MTT proliferation/viability assay; type: cell-based, human; settings: Homo sapiens, MCF7, MCF-7, breast
Description: as §6

[12] = system: SW1990; assay: MTT proliferation/viability assay; type: cell-based, human
Description: as §6

[13] = system: p27Kip1; assay: Western blot of p27Kip1 protein levels; type: cell-based; settings: human cancer cells; FIG. 17
Excerpt: as §5

IC50 [2]: 2.7 ± 1.5 µM | IC50 ([3]; Mus musculus, NIH3T3, whole cells, oncogenic H-Ras-transformed NIH3T3, n = 3 unless stated, read-out: H-Ras processing IC50): 88.7 ± 25.8 nM | IC50 ([3]; whole cells, NIH 3T3, values in nM, listed as FGTI-2734, read-out: H-Ras processing IC50 (whole cell)): 89 ± 26 nM | IC50 [6]: 7.19 ± 1.18 µM | IC50 [7]: 12.2 ± 0.97 µM | IC50 [9]: 20.5 ± 3.18 µM | IC50 ([10]; BxPC3, pancreas, listed as FGTI-2734): 17.8 µM | IC50 ([10]; Homo sapiens, BXPC-3, BxPC3, pancreas): 17.2 µM | IC50 [11]: 4.42 ± 0.92 µM | IC50 ([12]; Homo sapiens, SW1990, SW1990, pancreas): 26.3 µM | IC50 ([12]; SW1990, pancreas, listed as FGTI-2734): 24.2 µM
SMILES: Cn1cncc1CN(CCN(CC1CCCCC1)S(=O)(=O)c1ccccn1)c1ccc(C#N)cc1F [21b, N-(2-((4-cyano-2-fluorophenyl)((1-methyl-1H-imidazol-5-yl)methyl)amino)ethyl)-N-(cyclohexylmethyl)pyridine-2-sulfonamide]
inhibition of K-Ras prenylation [1]: inhibited | inhibition of Rap-1A geranylgeranylation [4]: inhibited | survivin protein levels ([5]; FIG. 18): reduces | apoptosis ([5]; FIG. 18 (PARP)): induces apoptosis | IC50 [8]: 14.7 ± 0.89 µM | p27Kip1 protein levels [13]: induces
